Values quoted from earlier work in US20050239864A1, “Novel tumor-selective chemotherapeutic agents” (priority 2004, published 2005).

What was measured:
endogenous albumin = target: T1, endogenous albumin (Homo sapiens, UniProt P02768); details: human blood plasma; cited from earlier work
T1 construct: To determine the coupling rate and selectivity of Dox-MH for endogenous albumin, Dox-MH was incubated with human blood plasma; from tissue; host or cells: human blood plasma

HSA = HSA (Homo sapiens, UniProt P02768); details: exogenously added HSA; cited from earlier work
Sequence of HSA (P02768 25-609): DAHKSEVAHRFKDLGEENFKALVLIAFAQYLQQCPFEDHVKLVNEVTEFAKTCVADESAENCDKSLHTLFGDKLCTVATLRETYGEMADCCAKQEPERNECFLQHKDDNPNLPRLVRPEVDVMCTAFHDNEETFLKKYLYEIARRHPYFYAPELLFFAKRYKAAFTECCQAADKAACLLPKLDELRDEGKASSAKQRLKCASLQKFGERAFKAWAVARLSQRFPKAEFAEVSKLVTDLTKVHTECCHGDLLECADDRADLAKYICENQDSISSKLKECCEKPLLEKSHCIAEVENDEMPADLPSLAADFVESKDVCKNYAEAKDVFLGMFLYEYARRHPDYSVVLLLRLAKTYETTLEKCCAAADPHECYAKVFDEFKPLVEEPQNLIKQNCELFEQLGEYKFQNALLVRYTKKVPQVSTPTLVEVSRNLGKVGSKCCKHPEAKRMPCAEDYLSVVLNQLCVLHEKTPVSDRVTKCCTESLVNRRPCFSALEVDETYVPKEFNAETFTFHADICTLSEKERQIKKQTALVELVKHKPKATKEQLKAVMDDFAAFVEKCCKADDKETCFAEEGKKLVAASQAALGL

[1] = tested on: mouse renal RENCA, human breast cancers MDA-MB 435 and MCF-7; details: three animal tumor models; cited from earlier work
[2] = tested on: MDA-MB 435 human breast cancer; details: cited from earlier work

T1 sequence (P02768 25-609): as above

Question: For `COc1cccc2c1C(=O)c1c(O)c3c(c(O)c1C2=O)C[C@@](O)(/C(CO)=N/NC(=O)CCCCCN1C(=O)C=CC1=O)C[C@@H]3O[C@H]1C[C@H](N)[C@H](O)[C@H](C)O1` [Dox-MH], which “time after which reaction with HSA was almost complete” value (endogenous albumin) is on record?
Answer: 2 min

Question: What about the “time by which all had reacted” value (endogenous albumin) of the same molecule?
Answer: ≤ 90 min

Question: And the “time by which all had reacted with HSA” value (HSA)?
Answer: ≤ 90 min

Question: And the “time by which majority had reacted with HSA” value (HSA)?
Answer: ≤ 5 min

Question: And the “antitumor efficacy and toxicity versus free doxorubicin” value [1]?
Answer: distinctly superior to free doxorubicin

Question: And the “antitumor response” value ([2]; Dox-MH at optimal dose (3×23 mg/kg))?
Answer: complete remissions were achieved

Question: And the “change in body weight” value ([2]; after 24 days of drug administration)?
Answer: did not produce an overall change in body weight
